The text below walks through data of US5221677A, “5-lipoxygenase inhibitors quinoline or isoquinoline derivatives” (Imperial Chemical Industries PLC, priority 1989, dated 1993).

In assay [1] the test system is 5-LO. As to the kind of experiment: Liberation of LTB4 induced by zymosan within an air pouch in male rats (test g). The class given is in vivo. To be noted: 3 h, oral, rat air pouch. Here is the method:
g) An in vivo system involving measuring the effects of a test compound administered orally against the liberation of LTB4 induced by zymosan within an air pouch generated within the subcutaneous tissue of the back of male rats. The rats are anaesthetised and air pouches are formed by the injection of sterile air (20 ml). A further injection of air (10 ml) is similarly given after 3 days). At 6 days after the initial air injection the test compound is administered (usually orally as the supsension produced when a solution of the test compound in dimethylsulphoxide is added to hydroxypropylmethylcellulose), followed by the intrapouch injection of zymosan (1 ml of a 1% suspension in physiological saline). After 3 hours the rats are killed, the air pouches are lavaged with physiological saline, and the specific radioimmunoassay described above is used to assay LTB4 in washings. This test provides an indication of inhibitory effects against 5-LO in an inflammatory milieu.

Assay [2] concerns 5-LO. In words: Ex vivo assay: administration of test compound, blood collection, A23187 challenge, LTB4 radioimmunoassay (test c). It is filed as in vivo. As to conditions: oral.
Assay [3] relates to 5-LO. In words: In vitro heparinised human blood assay, A23187 challenge, LTB4 radioimmunoassay (test b). The class given is cell-based. Here is the method: b) An in vitro assay system involving incubating a test compound with heparinised human blood, prior to challenge with the calcium ionophore A23187 and then indirectly measuring the inhibitory effects on 5-LO by assaying the amount of LTB4 using the specific radioimmunoassay described by Carey and Forder (F. Carey and R. A. Forder, Brit. J. Pharmacol. 1985, 84, 34P) which involves the use of a protein-LTB4 conjugate produced using the procedure of Young et alia (Prostaglandins, 1983, 26(4), 605-613). The effects of a test compound on the enzyme cyclooxygenase (which is involved in the alternative metabolic pathway for arachidonic acid and gives rise to prostaglandins, thromboxanes and related metabolites) may be measured at the same time using the specific radioimmunoassay for thromboxane B2 (TxB2) described by Carey and Forder (see above). This test provides an indication of the effects of a test compound against 5-LO and also cyclooxygenase in the presence of blood cells and proteins. It permits the selectivity of the inhibitory effect on 5-LO or cyclooxygenase to be assessed.

In the case of `COC1(c2cccc(Sc3ccc4c(ccc(=O)n4C)c3)c2)CCOCC1` [Example 1, 4-[3-(1,2-dihydro-1-methyl-2-oxoquinolin-6-ylthio)phenyl]-4-methoxytetrahydropyran], the ED50 with 5-LO [1] was 1 mg/kg; in the assay with 5-LO [2] it was 1.5 mg/kg. The compound also showed an IC50 in the assay on 5-LO [3] below 40 nM.
